Test results reported in paper PMC11614538, “The proline-rich antimicrobial peptide B7-005: low bacterial resistance, safe for human cells and effective in zebrafish embryo bacteraemia model” (Open Biology, 2024).
≈ marks a conversion by molar mass, not a printed value. Residues, ends and D or L forms follow the SMILES beside them.

How the values were obtained:
E. coli ATCC 25922 = assay: microbe, parasite or virus in culture; conditions: for MIC after 14th passage: 14 daily passages at one-half MIC, 18 h; for MIC: Escherichia coli, ATCC25922
Description: Escherichia coli ATCC 25922 was purchased from the American Type Culture Collection (ATCC) (Manassas, Virginia, USA) and stored at −80°C as glycerol stock until use. Bacterial cultures were grown overnight in sterile Müller–Hinton broth (MHB) (Difco Inc.) at 37°C under agitation (140 r.p.m.). The next day, the cultures were diluted 1 : 30 in new MHB and incubated as described above for about 2 h (mean logarithmic phase) until they reached an optical density at 600 nm of about 0.3 and then diluted in fresh MHB to the desired concentrations.
The effects of human serum on the antimicrobial activity of B7-005 were assessed by performing a minimum inhibitory concentration (MIC) assay with some modifications. Non-heat-inactivated human serum (Merk Life Science S.r.l., USA) was diluted to 50%, 40%, 30%, 25%, and 20% (v/v) in MHB and the solutions were aliquoted into the wells of a round-bottomed 96-well microtitre plate (Sarstedt, Milan, Italy). Samples with no serum were used for comparison. B7-005 was diluted in MHB added with the proper amount of serum to a concentration of 128 μM, added to the first column of the plate and serially diluted twofold in MHB, added with the proper amount of serum, in the subsequent wells in a final volume of 50 μl. Then 50 μl of a mid-log suspension of 5 × 10^5 CFU ml^−1 E. coli ATCC 25922 cells prepared in MHB added with the proper amount of serum was added to each well of the plate, halving the final concentration of bacteria and peptide. The plate was incubated at 37°C for 18 h. The MIC value was calculated as the lowest concentration of the compound resulting in complete inhibition of visible bacterial growth. MIC values were determined by performing at least three independent experiments (n ≥ 3).
The resistance selection assay was performed by modifying a previously described method. First, the MIC values of each antimicrobial compound (PrAMP or antibiotic) against E. coli ATCC 25922 were determined and recorded as described above. Serial sub-culturing was started by harvesting bacterial cells growing at one-half MIC and inoculating them into fresh MHB. […] This inoculum was incubated o/n and subjected to another MIC test. After 18 h of incubation, the cells growing at one-half MIC were harvested and used for another similar MIC assay. The process was repeated for 7 or 14 daily passages.

[1] = test system: zebrafish larvae infection model; conditions: simultaneous injection of pathogens and peptide versus post-infection administration; ref [40]; cited from earlier work
Source text: In the current work, the infection of zebrafish larvae with E. coli and their treatment with B7-005 were strictly controlled performing them by microinjection in the Cuvier duct. […] To better ...

With `CC[C@H](C)[C@H](NC(=O)[C@H](CCCNC(=N)N)NC(=O)[C@@H](N)CCCNC(=N)N)C(=O)N[C@@H](CCCNC(=N)N)C(=O)N1CCC[C@H]1C(=O)N[C@@H](CCCNC(=N)N)C(=O)N1CCC[C@H]1C(=O)N1CCC[C@H]1C(=O)N[C@@H](CCCNC(=N)N)C(=O)N[C@@H](CC(C)C)C(=O)N1CCC[C@H]1C(=O)N[C@@H](CCCNC(=N)N)C(=O)N1CCC[C@H]1C(=O)N[C@@H](CCCNC(=N)N)C(=O)N1CCC[C@H]1C(=O)N[C@@H](CCCNC(=N)N)C(=O)O` [Bac7(1-16)] (H-RRIRPRPPRLPRPRPR-OH) the “MIC after 14th passage” value (E. coli ATCC 25922; MHB) was 128 µM (≈ 266 µg/mL).
For `CC[C@H](C)[C@H](NC(=O)[C@H](CCCNC(=N)N)NC(=O)[C@@H](N)CCCNC(=N)N)C(=O)N[C@@H](CCCNC(=N)N)C(=O)N1CCC[C@H]1C(=O)N[C@@H](CCCNC(=N)N)C(=O)N1CCC[C@H]1C(=O)N1CCC[C@H]1C(=O)N[C@@H](CCCNC(=N)N)C(=O)N[C@@H](CC(C)C)C(=O)N1CCC[C@H]1C(=O)N[C@@H](CCCNC(=N)N)C(=O)N1CCC[C@H]1C(=O)N[C@@H](CCCNC(=N)N)C(=O)N1CCC[C@H]1C(=O)N[C@@H](CCCNC(=N)N)C(=O)N1CCC[C@H]1C(=O)N[C@@H](CC(C)C)C(=O)N1CCC[C@H]1C(=O)N[C@@H](Cc1ccccc1)C(=O)N1CCC[C@H]1C(=O)N[C@@H](CCCNC(=N)N)C(=O)N1CCC[C@H]1C(=O)NCC(=O)N1CCC[C@H]1C(=O)N[C@@H](CCCNC(=N)N)C(=O)N1CCC[C@H]1C(=O)N[C@H](C(=O)N1CCC[C@H]1C(=O)N[C@@H](CCCNC(=N)N)C(=O)N1CCC[C@H]1C(=O)N[C@@H](CC(C)C)C(=O)N1CCC[C@H]1C(=O)N[C@@H](Cc1ccccc1)C(=O)N1CCC[C@H]1C(=O)O)[C@@H](C)CC` [Bac7(1-35)] (H-RRIRPRPPRLPRPRPRPLPFPRPGPRPIPRPLPFP-OH; N-terminus and C-terminus assumed), the “MIC after 14th passage” value (E. coli ATCC 25922; MHB) was 128 µM (≈ 539 µg/mL) and the “passage (cycle) after which MIC started to increase” value (E. coli ATCC 25922; serial passages at one-half MIC, MHB) was 5.
In the case of `O=C(N[C@H](CO)[C@H](O)c1ccc([N+](=O)[O-])cc1)C(Cl)Cl` [chloramphenicol], the MIC (E. coli ATCC 25922) is reported as 1020 µM (≈ 331 µg/mL) and the “fold increase in MIC” value (E. coli ATCC 25922; after 8 passages at one-half MIC) is reported as 64 fold.
With `CO[C@H]1/C=C/O[C@@]2(C)Oc3c(C)c(O)c4c(O)c(c(/C=N/N5CCN(C)CC5)c(O)c4c3C2=O)NC(=O)/C(C)=C\C=C\[C@H](C)[C@H](O)[C@@H](C)[C@@H](O)[C@@H](C)[C@H](OC(C)=O)[C@@H]1C` [rifampicin] the MIC (E. coli ATCC 25922) was 1020 µM (≈ 843 µg/mL) and the “fold increase in MIC” value (E. coli ATCC 25922; after 4 passages at one-half MIC) was 64 fold.
For “Bac5: another PrAMP previously used in a zebrafish larvae infection model (RFRPPIRRPPIRPPFYPPFRPPIRPPIFPPIRPPFRPPLGPFP; Bactenecin 5; UniProt P19660 131-173, looked up)”, the “efficacy in zebrafish larvae infection model” value [1] is given as “only effective when the pathogens and peptide were simultaneously injected”.
With colistin the “MIC during serial passaging” value (E. coli ATCC 25922; throughout the complete serial passaging process) was “remained substantially unchanged”.
